{"source": "patent US4416877A", "about": "“Anti-atherosclerotic pharmaceutical compositions containing diphosphonate compounds” (priority 1979, dated 1983)", "key": {"lipid metabolism": {"test_system": "lipid metabolism", "experiment": "Effects of diphosphonates on lipid metabolism in normal rats (serum lipids, α/β cholesterol)", "assay_type": "in vivo, male Wistar rats", "details": "for change in vivo at 200 mg/kg/day: Rattus norvegicus, po", "procedure": "Effects of diphosphonates of formula (I) on lipid metabolism in normal rats Groups of 4 to 5 normal male Wistar rats, weighing about 200 g were treated with diphosphonates (200 mg/kg/day) p.o. for 4 to 21 days. Water soluble compounds were given in solution in 24 mM bicarbonate buffer. Lipid soluble compounds were given in corn oil. The rats were weighed, sacrificed by decapitation (under light ether anesthesia) after overnight fasting. Blood was collected and serum used for analysis. The following blood parameters reflecting changes in lipid metabolism are reported: […]\nfree fatty acids measured according to W. G. Duncombe (Clin. Acta 9, 122, 1964) triglycerides enzymatic method (Boehringer Mannheim Kit 126 012) phospholipids: molybdate/vanadate reaction (Boehringer Mannheim Kit 124 974) β-lipoprotein cholesterol was measured after heparin, CaCl2 precipitation according to M. Burstein et al. (La Presse Medicale 43, 974, 1958) and to D. Watson (Clin. Chim. Acta 5, 637, 1960).\n(§1) In above Table IV, results are given as % control values. Except for serum calcium, values which differ from control values by less than 15% are considered as non significant (NS).\nSerum free fatty acids, triglycerides and phospholipids were measured in normal rats (N) and rats previously fed a cholesterol diet for 10 days (C.F.) Serum α/β cholesterol, total lipids and cholesterol of liver and aorta were determined in normal rats (N) and rats which had previously been fed on high cholesterol diet (C.F.)"}, "Oral LD50 toxicity": {"experiment": "Oral LD50 toxicity", "assay_type": "in vivo", "details": "in vivo; oral", "source_text": "Following the extensive pharmacological screening of these compounds, using over 2000 animals, those showing the most potential were then subjected to toxicity testing for further selection relative to their activity/toxicity risk profiles\nBy way of LD50 (Lethal Dose 50) the methyl diphosphonates were discovered to have a significant lower degree of toxicity. […] This represents a significant six fold difference in toxicity."}, "tissue cholesterol": {"test_system": "tissue cholesterol", "experiment": "Effects in cholesterol fed rats (serum, liver and aorta lipids)", "assay_type": "in vivo", "details": "cholesterol fed rats (C.F), 200 mg/kg/day; for change in vivo at 200 mg/kg/day: Rattus norvegicus", "procedure": "Effects of diphosphonates of formula (I) in cholesterol fed rats\nIn order to increase tissue cholesterol, especially liver, rats were fed a high fat-high cholesterol diet for 10 days to 3 months, with the following diet composition: casein 20%, butter 37%, cellulose 9.1%, dextrose 18,9%, cholesterol 4.5%, sodium cholate 1.8%, minerals 7.3%, vitamins 1%, choline 0.4%.\nThe rats were then fed normal food and were treated for 10 days to 3 months with different compounds (200 mg/kg/day). Serum parameters described above were measured. Liver and aorta lipids were extracted according to J. Folch et al (J. Biochem. 226, 497, 1957). Total lipids were determined by the sulfophosphovanillic reaction (see N. Zolner and K. Kirsch, Z. Ges. exp. Med. 135, 545, 1962) and cholesterol by the Liebermann-Burchard reaction or appropriate enzymatic reaction.\nas §1\nSerum free fatty acids, triglycerides and phospholipids were measured in normal rats (N) and rats previously fed a cholesterol diet for 10 days (C.F.)\nSerum α/β cholesterol, total lipids and cholesterol of liver and aorta were determined in normal rats (N) and rats which had previously been fed on high cholesterol diet (C.F.)"}, "serum calcium": {"test_system": "serum calcium", "experiment": "Effects of acid and salt form of diphosphonates in hypercalceamic rats", "assay_type": "in vivo, male Wistar rats", "procedure": "Effects of acid and salt form of diphosphonates of formula (I) in hypercalceamic rats\nTo verify this activity the acid form of compound 4 and is monosodium salt counterpart (compound 10) were also tested by using a protol similar to the one described by Potokar (see above). Briefly, groups of 4 male Wistar rats received acid or salt form of compound 4 as 0.05% solution in drinking water corresponding to about 50 mg/kg/day. The rats were treated with the compounds for 15 days.\nSerum calcium was measured in hypercalceamic rats."}, "[1]": {"test_system": "aorta and kidney calcification", "details": "hypercalceamic animal model; cited from earlier work"}, "[2]": {"test_system": "alpha/beta cholesterol ratio", "experiment": "Comparison of clofibrate, gemfibrozil and fenofibrate to compound 16: alpha/beta cholesterol ratio in normal Wistar rats", "assay_type": "in vivo", "details": "100 mg/kg for 10 days, n = 5", "procedure": "It should be noted that these diphosphonate compounds are different and novel in comparison to the classical hypolipidemic compounds as illustrated in Table V. The diphosphonate ester used for comparison was the only one to increase the alpha/beta cholesterol ratio in control rats.\nEach drug was administered at 100 mg/kg for 10 days"}, "HDL cholesterol": {"test_system": "HDL cholesterol", "details": "rats; Day et al., Muller and Cortesi; cited from earlier work"}, "[3]": {"details": "normal rats (N), 200 mg/kg/day p.o., read-out: Serum Chol. α/β (% control values)"}, "[4]": {"details": "normal rats (N), 200 mg/kg/day p.o., read-out: Serum Phospholipids (% control values)"}, "[5]": {"details": "normal rats (N), 200 mg/kg/day p.o., read-out: Serum Triglycerides (% control values)"}, "[6]": {"details": "normal rats (N), 200 mg/kg/day p.o., 200 mg/kg/day"}, "[7]": {"details": "read-out: Liver Chol. (% control values)"}}, "note": "Like-named read-outs stand apart in the source and are kept apart here."}
{"smiles": "CCOP(=O)(OCC)OC(c1ccc(Cl)cc1)P(=O)(OCC)OCC", "note": "(centres unmarked) [Compound 24]", "values": [{"measurement": "change in vivo at 200 mg/kg/day", "setting": "lipid metabolism; [3]", "value": "< 15", "unit": "%"}, {"measurement": "change in vivo at 200 mg/kg/day", "setting": "lipid metabolism; [4]", "value": "< 15", "unit": "%"}, {"measurement": "change in vivo at 200 mg/kg/day", "setting": "lipid metabolism; [5]", "value": "< 15", "unit": "%"}, {"measurement": "LD50", "setting": "Oral LD50 toxicity", "value": 547, "unit": "mg/kg"}]}
{"smiles": "O=P(O)(O)C(O)(c1ccc(Cl)cc1)P(=O)(O)O", "note": "[4 Acid, hydroxy (p-chlorophenyl) methylenediphosphonic acid]", "values": [{"measurement": "change in vivo at 200 mg/kg/day", "setting": "lipid metabolism; [3]", "value": "< 15", "unit": "%"}, {"measurement": "change in vivo at 200 mg/kg/day", "setting": "lipid metabolism; [4]", "value": "< 15", "unit": "%"}, {"measurement": "Serum Free Fatty Acids (% control values)", "setting": "lipid metabolism; [6]", "value": -17, "unit": "%"}, {"measurement": "Serum Triglycerides (% control values)", "setting": "lipid metabolism; [6]", "value": -29, "unit": "%"}, {"measurement": "decreases in serum triglycerides", "setting": "lipid metabolism; rats", "value": "Significant decreases"}, {"measurement": "property to change lipid metabolism / increase HDL", "setting": "lipid metabolism; rats", "value": "do not have these properties"}, {"measurement": "change in vivo at 200 mg/kg/day", "setting": "tissue cholesterol; [7]", "value": "< 15", "unit": "%"}, {"measurement": "change in vivo at 200 mg/kg/day", "setting": "tissue cholesterol; read-out: Liver Total Lipids (% control values)", "value": "< 15", "unit": "%"}, {"measurement": "Aorta Chol. (% control values)", "setting": "tissue cholesterol", "value": "NS (Except for serum calcium, values which differ from control values by less than 15% are considered as non significant (NS))"}, {"measurement": "Aorta Total Lipids (% control values)", "setting": "tissue cholesterol", "value": "NS (Except for serum calcium, values which differ from control values by less than 15% are considered as non significant (NS))"}, {"measurement": "Serum Calcium (% control values)", "setting": "serum calcium; 15% NS limit does not apply", "value": -20, "unit": "%"}, {"measurement": "decrease of serum calcium", "setting": "serum calcium; about 50 mg/kg/day in drinking water, 15 days, listed as acid form of compound 4", "value": 20, "unit": "%"}]}
{"smiles": "O=P(O)(O)C(Cl)(Cl)P(=O)(O)O", "note": "[dichloromethylene diphosphonate]", "values": [{"measurement": "aorta and kidney calcification", "setting": "[1]", "value": "inhibit aorta and kidney calcification"}, {"measurement": "vitamin D-induced rise in plasma calcium", "setting": "[1]", "value": "prevent the vitamin D-induced rise in plasma calcium"}]}
{"smiles": "CCOC(=O)C(C)(C)Oc1ccc(Cl)cc1", "note": "[Clofibrate, reference compound]", "values": [{"measurement": "change in vivo at 200 mg/kg/day", "setting": "lipid metabolism; [3]", "value": "< 15", "unit": "%"}, {"measurement": "change in vivo at 200 mg/kg/day", "setting": "lipid metabolism; normal rats (N), 200 mg/kg/day p.o., read-out: Serum Free Fatty Acids (% control values)", "value": "< 15", "unit": "%"}, {"measurement": "change in vivo at 200 mg/kg/day", "setting": "lipid metabolism; [4]", "value": -34, "unit": "%"}, {"measurement": "change in vivo at 200 mg/kg/day", "setting": "lipid metabolism; [5]", "value": 19, "unit": "%"}, {"measurement": "decrease of plasma phospholipids", "setting": "lipid metabolism; rats, comparison", "value": 33.6, "unit": "%"}, {"measurement": "decrease of α/β ratio", "setting": "lipid metabolism; rats, comparison", "value": 52.2, "unit": "%"}, {"measurement": "change in vivo at 200 mg/kg/day", "setting": "tissue cholesterol; [7]", "value": "< 15", "unit": "%"}, {"measurement": "alpha/beta Cholesterol Ratio", "setting": "[2]", "value": "2.76 ± 0.40"}, {"measurement": "HDL cholesterol", "setting": "HDL cholesterol", "value": "decreases HDL cholesterol"}]}
{"smiles": "Cc1ccc(C)c(OCCCC(C)(C)C(=O)O)c1", "note": "[Gemfibrozil]", "values": [{"measurement": "alpha/beta Cholesterol Ratio", "setting": "[2]", "value": "5.33 ± 0.31"}]}
{"smiles": "CC(C)OC(=O)C(C)(C)Oc1ccc(C(=O)c2ccc(Cl)cc2)cc1", "note": "[Fenofibrate]", "values": [{"measurement": "alpha/beta Cholesterol Ratio", "setting": "[2]", "value": "1.19 ± 0.20"}]}
